According to patent publication US20220174981A1, “PROLINE TOLERANT TRIPEPTIDYL PEPTIDASES AND USES THEREOF” (DuPont Nutrition Biosciences APS, priority 2014, published 2022):

Key:
[1] = test system: proline tolerant tripeptidyl peptidase (TRI083); assay: Hydrolysis of 33-mer gliadin peptide, LC-MS label-free quantification; assay type: biochemical; conditions: for Relative MS peak intensities: 24° C., pH 4.5
Experimental: The 33-mer of gliadin (alpha-2-gliadin) (aa56-88) H-[…]-OH (Zedira GmbH; D-64293 Darmstadt, Germany) C190H273N43O47 (MW=3911.46) (1 mg/ml; 0.26 mM) was incubated at 24° C. in the presence of proline tolerant tripeptidyl peptidase (0.01 mg/ml TRI083) in a total volume of 1000 ul buffer (pH=4.5) (the ratio substrate/enzyme 100:1, w/w). Aliquots (100 ul) of enzyme reaction were stopped with 20 ul 5% trifluoroacetic acid (TFA) after 0, 1, 3, 5, 10, 15 and 30 minutes, respectively. The samples were then transferred to new vials and analyzed on the LTQ Orbitrap mass spectrometer.
The LC-MS/MS data was manually annotated using GPMAW to calculate theoretical values of fragmentation.

H-Ala-Ala-Phe-pNA = assay: Low pH stability of tripeptidyl peptidases (pH 2.5, 40° C., 60 min), activity on H-Ala-Ala-Phe-pNA; assay type: biochemical; conditions: for OD410nm (Final): after pH 2.5, 40° C., 60 min; for OD410nm (Initial): without incubation at 40° C. for 60 min
Experimental: As requirements for utilization of the enzymes in feed for monogastric animals, the enzymes should be active at lower pH. For this reason the number of tripeptidyl peptidases has been tested with the reaction on synthetic substrate AAF (H-Ala-Ala-Phe-pNA. BACHEM, L-1095), at pH 2.5.
The tripeptide substrate AAF was prepared at 2.5 mg/ml in DMSO. Tripeptidyl peptidases were used as broth. The reaction mixture containing 2.5 μl enzyme and 90 μL glycine acetic acid-Tris buffer (each buffer components at 50 mM, pH 2.5) was prepared in 96 well incubation plates.
The incubation plate was mixed and incubated at 40° C. for 60 min. Then 50 μl 0.2M Mes-NaOH pH6.0 was added to each well, mixed at 600 rpm for 2 min. After that, 5 ul of the incubation mixture were taken to 96 well assay plate already filled with 85 μl 0.1M acetic acid buffer, pH4.0 and 5 μl 2.5 mg/ml AAF substrate solution.
The reaction mixture was stirred at 600 rpm for 2 min and read directly in a microplate reader (Molecular Devices, Denmark) at 410 nm at 30° C. every 30 second for 15 min.
To measure initial enzyme activity, similar procedure was performed except the step of enzyme incubation at 40° C. for 60 min.

proline tolerant tripeptidyl peptidase (TRI083), sequence (as listed by the source): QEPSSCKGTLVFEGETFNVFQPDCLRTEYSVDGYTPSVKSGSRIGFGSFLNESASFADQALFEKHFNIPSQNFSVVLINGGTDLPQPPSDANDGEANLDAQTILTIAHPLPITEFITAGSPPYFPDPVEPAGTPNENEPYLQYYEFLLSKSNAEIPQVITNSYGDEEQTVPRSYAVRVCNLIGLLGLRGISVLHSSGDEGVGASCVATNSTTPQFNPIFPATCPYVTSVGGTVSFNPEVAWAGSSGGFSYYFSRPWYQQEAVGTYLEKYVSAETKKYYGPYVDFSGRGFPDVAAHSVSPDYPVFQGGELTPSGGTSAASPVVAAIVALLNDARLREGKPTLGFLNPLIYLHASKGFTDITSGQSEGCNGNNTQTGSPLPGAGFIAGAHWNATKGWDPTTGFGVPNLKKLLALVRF

| Molecule | Relative MS peak intensities ([1]; 0 min with TRI083 0.01 mg/ml) | Relative MS peak intensities ([1]; 1 min with TRI083 0.01 mg/ml) | Relative MS peak intensities ([1]; 3 min with TRI083 0.01 mg/ml) | Relative MS peak intensities ([1]; 5 min with TRI083 0.01 mg/ml) | Relative MS peak intensities ([1]; 10 min with TRI083 0.01 mg/ml) | Relative MS peak intensities ([1]; 15 min with TRI083 0.01 mg/ml) | Relative MS peak intensities ([1]; 30 min with TRI083 0.01 mg/ml) | detectability of the intact peptide over time ([1]; TRI083 0.01 mg/ml, substrate/enzyme 100:1) | cleavage by proline tolerant tripeptidyl peptidase ([1]; proline in P3,P2,P1,P1′,P2′ and P3′ positions) | OD410nm (Final) (H-Ala-Ala-Phe-pNA) | OD410nm (Initial) (H-Ala-Ala-Phe-pNA) | OD410nm (Final) (H-Ala-Ala-Phe-pNA; listed as TRI050.3) | OD410nm (Initial) (H-Ala-Ala-Phe-pNA; listed as TRI050.3) |
| --- | --- | --- | --- | --- | --- | --- | --- | --- | --- | --- | --- | --- | --- |
| H-LQLQPFPQPQLPYPQPQLPYPQPQLPYPQPQPF-OH [Alpha-2 gliadin, 33-mer of gliadin (alpha-2-gliadin) (aa56-88), substrate, reference compound] | 100 | 10 | 0 | 0 | 0 | 0 | 0 | not detectable after 3 min | consecutively into tri-peptides irrespective of a high proline content |  |  |  |  |
| QPF | 0 | 4 | 55 | 7 | 129 | 26 | 100 |  |  |  |  |  |  |
| PQL | 8 | 21 | 30 | 32 | 42 | 58 | 100 |  |  |  |  |  |  |
| PYP | 4 | 7 | 12 | 15 | 28 | 48 | 101 |  |  |  |  |  |  |
| YPQPQLPYPQPQLPYPQPQPF [intermediate product of alpha-2-gliadin hydrolysis] | 79 | 100 | 52 | 23 | 23 | 23 | 20 |  |  |  |  |  |  |
| LQL | 3 | 91 | 88 | 94 | 94 | 100 | 100 |  |  |  |  |  |  |
| LPY | 5 | 21 | 46 | 62 | 90 | 100 | 94 |  |  |  |  |  |  |
| TRI053.1: tripeptidyl peptidase, SEQ ID No. 10/SEQ ID No. 37, used as broth (protein, listed as Aspergillus kawachii, used as fermentation broth) chain 1: VVHEKLAAVPSGWHHLEDAGSDHQISLSIALARKNLDQLESKLKDLSTPGESQYGQWLDQEEVDTLFPVASDKAVISWLRSANITHIARQGSLVNFATTVDKVNKLLNTTFAYYQRGSSQRLRTTEYSIPDDLVDSIDLISPTTFFGKEKTSAGLTQRSQKVDNHVAKRSNSSSCADTITLSCLKEMYNFGNYTPSASSGSKLGFASFLNESASYSDLAKFERLFNLPSQNFSVELINGGVNDQNQSTASLTEADLDVELLVGVGHPLPVTEFITSGEPPFIPDPDEPSAADNENEPYLQYYEYLLSKPNSALPQVISNSYGDDEQTVPEYYAKRVCNLIGLVGLRGISVLESSGDEGIGSGCRTTDGTNSTQFNPIFPATCPYVTAVGGTMSYAPEIAWEASSGGFSNYFERAWFQKEAVQNYLANHITNETKQYYSQFANFSGRGFPDVSAHSFEPSYEVIFYGARYGSGGTSAACPLFSALVGMLNDARLRAGKSTLGFLNPLLYSKGYKALTDVTAGQSIGCNGIDPQSDEAVAGAGIIPWAHWNATVGWDPVTGLGLPDFEKLRQLVLSL chain 2: CADTITLSCLKEMYNFGNYTPSASSGSKLGFASFLNESASYSDLAKFERLFNLPSQNFSVELINGGVNDQNQSTASLTEADLDVELLVGVGHPLPVTEFITSGEPPFIPDPDEPSAADNENEPYLQYYEYLLSKPNSALPQVISNSYGDDEQTVPEYYAKRVCNLIGLVGLRGISVLESSGDEGIGSGCRTTDGTNSTQFNPIFPATCPYVTAVGGTMSYAPEIAWEASSGGFSNYFERAWFQKEAVQNYLANHITNETKQYYSQFANFSGRGFPDVSAHSFEPSYEVIFYGARYGSGGTSAACPLFSALVGMLNDARLRAGKSTLGFLNPLLYSKGYKALTDVTAGQSIGCNGIDPQSDEAVAGAGIIPWAHWNATVGWDPVTGLGLPDFEKLRQLVLS |  |  |  |  |  |  |  |  |  | 0.356 | 0.345 |  |  |
| TRI050: tripeptidyl peptidase, SEQ ID No. 7/SEQ ID No. 34, used as broth (protein, listed as Fusarium graminearum, used as fermentation broth) chain 1: KSYSHHAEAPKGWKVDDTARVASTGKQQVFSIALTMQNVDQLESKLLDLSSPDSKNYGQWMSQKDVTTAFYPSKEAVSSVTKWLKSKGVKHYNVNGGFIDFALDVKGANALLDSDYQYYTKEGQTKLRTLSYSIPDDVAEHVQFVDPSTNFGGTLAFAPVTHPSRTLTERKNKPTKSTVDASCQTSITPSCLKQMYNIGDYTPKVESGSTIGFSSFLGESAIYSDVFLFEEKFGIPTQNFTTVLINNGTDDQNTAHKNFGEADLDAENIVGIAHPLPFTQYITGGSPPFLPNIDQPTAADNQNEPYVPFFRYLLSQKEVPAVVSTSYGDEEDSVPREYATMTCNLIGLLGLRGISVIFSSGDIGVGAGCLGPDHKTVEFNAIFPATCPYLTSVGGTVDVTPEIAWEGSSGGFSKYFPRPSYQDKAVKTYMKTVSKQTKKYYGPYTNWEGRGFPDVAGHSVSPNYEVIYAGKQSASGGTSAAAPVWAAIVGLLNDARFRAGKPSLGWLNPLVYKYGPKVLTDITGGYAIGCDGNNTQSGKPEPAGSGIVPGARWNATAGWDPVTGYGTPDFGKLKDLVLSF chain 2: CQTSITPSCLKQMYNIGDYTPKVESGSTIGFSSFLGESAIYSDVFLFEEKFGIPTQNFTTVLINNGTDDQNTAHKNFGEADLDAENIVGIAHPLPFTQYITGGSPPFLPNIDQPTAADNQNEPYVPFFRYLLSQKEVPAVVSTSYGDEEDSVPREYATMTCNLIGLLGLRGISVIFSSGDIGVGAGCLGPDHKTVEFNAIFPATCPYLTSVGGTVDVTPEIAWEGSSGGFSKYFPRPSYQDKAVKTYMKTVSKQTKKYYGPYTNWEGRGFPDVAGHSVSPNYEVIYAGKQSASGGTSAAAPVWAAIVGLLNDARFRAGKPSLGWLNPLVYKYGPKVLTDITGGYAIGCDGNNTQSGKPEPAGSGIVPGARWNATAGWDPVTGYGTPDFGKLKDLVLS |  |  |  |  |  |  |  |  |  | 0.814 | 0.895 | 0.501 | 0.603 |
